What was measured:
Assay in all cases: KiNativ kinome profiling in PANC-1 lysate
Format in all cases: binding
[1] = tested on: AMPKa1, AMPKa2; conditions: 5 µM
How it was run: (§1)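 PANC-1 lysates were incubated with 5 μM inhibitor or DMSO, then labeled with a desthiobiotin-ATP acyl-phosphate probe that biotinylates conserved kinase lysines. Tryptic peptides were streptavidin-enriched and quantified by LC-MS/MS, reported as % change in MS signal from duplicate treated and duplicate control samples.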

[2] = biological target: T1, CDK4 (Homo sapiens, UniProt P11802); conditions: Lys2
T1 construct: endogenous in cells; host or cells: PANC-1 cell lysate
How it was run: as §1

[3] = biological target: T2, CHED (Homo sapiens, UniProt Q14004); conditions: Lys2
T2 construct: endogenous in cells; host or cells: PANC-1 cell lysate
How it was run: as §1

[4] = biological target: T3, CK1g2 (Homo sapiens, UniProt P78368); conditions: Lys2
T3 construct: endogenous in cells; host or cells: PANC-1 cell lysate
T3 sequence (P78368 whole entry): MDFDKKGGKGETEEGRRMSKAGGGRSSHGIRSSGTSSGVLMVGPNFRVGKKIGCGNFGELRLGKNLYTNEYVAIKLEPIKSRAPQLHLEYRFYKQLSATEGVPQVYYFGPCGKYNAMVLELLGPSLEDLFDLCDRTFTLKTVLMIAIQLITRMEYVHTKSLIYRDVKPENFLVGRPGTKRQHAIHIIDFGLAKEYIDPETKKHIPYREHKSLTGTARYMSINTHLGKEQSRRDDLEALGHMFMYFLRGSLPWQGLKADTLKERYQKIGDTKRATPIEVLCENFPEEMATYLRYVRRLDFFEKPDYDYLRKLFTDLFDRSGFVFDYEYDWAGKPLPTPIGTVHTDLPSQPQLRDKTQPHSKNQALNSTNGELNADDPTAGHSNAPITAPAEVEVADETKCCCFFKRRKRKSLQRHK
How it was run: as §1

[5] = biological target: T4, CLK2 (Homo sapiens, UniProt P49760); conditions: Lys2
T4 construct: endogenous in cells; host or cells: PANC-1 cell lysate
How it was run: as §1

[6] = biological target: T5, FAM20B (Homo sapiens, UniProt O75063); conditions: ATP
T5 construct: endogenous in cells; host or cells: PANC-1 lysate
How it was run: as §1

[7] = biological target: T6, GAK (Homo sapiens, UniProt O14976); conditions: Lys2
T6 construct: endogenous in cells; host or cells: PANC-1 lysate
How it was run: as §1

[8] = biological target: T7, GSK3B (Homo sapiens, UniProt P49841); conditions: Lys2
T7 construct: we opted to conduct a kinome screen (KiNativ) in PANC-1 cell lysates; endogenous in cells; host or cells: PANC-1 cell lysate
T7 sequence (P49841 whole entry): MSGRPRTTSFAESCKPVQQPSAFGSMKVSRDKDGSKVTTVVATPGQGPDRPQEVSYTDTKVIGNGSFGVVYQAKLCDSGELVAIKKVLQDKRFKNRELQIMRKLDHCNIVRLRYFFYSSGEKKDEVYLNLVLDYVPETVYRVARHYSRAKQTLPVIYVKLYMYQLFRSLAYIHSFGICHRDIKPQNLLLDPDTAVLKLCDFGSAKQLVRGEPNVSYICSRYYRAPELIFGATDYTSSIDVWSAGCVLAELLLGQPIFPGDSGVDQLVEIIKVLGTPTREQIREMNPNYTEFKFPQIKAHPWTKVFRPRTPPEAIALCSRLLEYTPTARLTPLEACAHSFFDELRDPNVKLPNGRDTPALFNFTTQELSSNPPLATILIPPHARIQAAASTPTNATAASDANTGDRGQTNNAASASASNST
How it was run: as §1

[9] = biological target: T8, ILK (Homo sapiens, UniProt Q13418)
T8 construct: we opted to conduct a kinome screen (KiNativ) in PANC-1 cell lysates; endogenous in cells; host or cells: PANC-1 cell lysate
T8 sequence (Q13418 whole entry): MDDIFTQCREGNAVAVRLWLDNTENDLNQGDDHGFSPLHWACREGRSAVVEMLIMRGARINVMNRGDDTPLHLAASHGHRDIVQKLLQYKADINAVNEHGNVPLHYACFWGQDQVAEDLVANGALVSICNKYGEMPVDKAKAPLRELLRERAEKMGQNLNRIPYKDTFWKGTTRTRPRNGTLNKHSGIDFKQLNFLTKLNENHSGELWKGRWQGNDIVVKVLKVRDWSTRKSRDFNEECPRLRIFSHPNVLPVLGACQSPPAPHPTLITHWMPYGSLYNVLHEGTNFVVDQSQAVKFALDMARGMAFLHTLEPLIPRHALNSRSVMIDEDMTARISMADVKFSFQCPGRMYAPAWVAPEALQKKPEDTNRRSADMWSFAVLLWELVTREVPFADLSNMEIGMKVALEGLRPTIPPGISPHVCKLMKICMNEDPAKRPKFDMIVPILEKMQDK
How it was run: as §1

[10] = tested on: JNK1, JNK2, JNK3; conditions: 5 µM; Lys2; DLKPSNIVVK
How it was run: as §1

[11] = biological target: T9, MAP2K3 (Homo sapiens, UniProt P46734)
T9 construct: endogenous in cells; host or cells: PANC-1 cell lysate
T9 sequence (P46734 1-347): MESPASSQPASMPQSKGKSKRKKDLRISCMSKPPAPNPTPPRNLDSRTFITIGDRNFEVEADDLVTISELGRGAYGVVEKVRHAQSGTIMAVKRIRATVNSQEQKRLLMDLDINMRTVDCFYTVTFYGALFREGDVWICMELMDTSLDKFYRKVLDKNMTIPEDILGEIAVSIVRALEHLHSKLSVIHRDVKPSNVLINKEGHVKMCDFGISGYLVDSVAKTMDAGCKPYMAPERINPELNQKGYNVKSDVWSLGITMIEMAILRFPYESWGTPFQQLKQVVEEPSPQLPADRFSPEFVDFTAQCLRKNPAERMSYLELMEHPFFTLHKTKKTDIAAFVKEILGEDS
How it was run: as §1

[12] = biological target: T10, MAP2K7 (Homo sapiens, UniProt O14733); conditions: Lys2
T10 construct: endogenous in cells; host or cells: PANC-1 cell lysate
How it was run: as §1

[13] = biological target: T11, MAP3K1 (Homo sapiens, UniProt Q13233)
T11 construct: endogenous in cells; host or cells: PANC-1 cell lysate
T11 sequence (Q13233 whole entry): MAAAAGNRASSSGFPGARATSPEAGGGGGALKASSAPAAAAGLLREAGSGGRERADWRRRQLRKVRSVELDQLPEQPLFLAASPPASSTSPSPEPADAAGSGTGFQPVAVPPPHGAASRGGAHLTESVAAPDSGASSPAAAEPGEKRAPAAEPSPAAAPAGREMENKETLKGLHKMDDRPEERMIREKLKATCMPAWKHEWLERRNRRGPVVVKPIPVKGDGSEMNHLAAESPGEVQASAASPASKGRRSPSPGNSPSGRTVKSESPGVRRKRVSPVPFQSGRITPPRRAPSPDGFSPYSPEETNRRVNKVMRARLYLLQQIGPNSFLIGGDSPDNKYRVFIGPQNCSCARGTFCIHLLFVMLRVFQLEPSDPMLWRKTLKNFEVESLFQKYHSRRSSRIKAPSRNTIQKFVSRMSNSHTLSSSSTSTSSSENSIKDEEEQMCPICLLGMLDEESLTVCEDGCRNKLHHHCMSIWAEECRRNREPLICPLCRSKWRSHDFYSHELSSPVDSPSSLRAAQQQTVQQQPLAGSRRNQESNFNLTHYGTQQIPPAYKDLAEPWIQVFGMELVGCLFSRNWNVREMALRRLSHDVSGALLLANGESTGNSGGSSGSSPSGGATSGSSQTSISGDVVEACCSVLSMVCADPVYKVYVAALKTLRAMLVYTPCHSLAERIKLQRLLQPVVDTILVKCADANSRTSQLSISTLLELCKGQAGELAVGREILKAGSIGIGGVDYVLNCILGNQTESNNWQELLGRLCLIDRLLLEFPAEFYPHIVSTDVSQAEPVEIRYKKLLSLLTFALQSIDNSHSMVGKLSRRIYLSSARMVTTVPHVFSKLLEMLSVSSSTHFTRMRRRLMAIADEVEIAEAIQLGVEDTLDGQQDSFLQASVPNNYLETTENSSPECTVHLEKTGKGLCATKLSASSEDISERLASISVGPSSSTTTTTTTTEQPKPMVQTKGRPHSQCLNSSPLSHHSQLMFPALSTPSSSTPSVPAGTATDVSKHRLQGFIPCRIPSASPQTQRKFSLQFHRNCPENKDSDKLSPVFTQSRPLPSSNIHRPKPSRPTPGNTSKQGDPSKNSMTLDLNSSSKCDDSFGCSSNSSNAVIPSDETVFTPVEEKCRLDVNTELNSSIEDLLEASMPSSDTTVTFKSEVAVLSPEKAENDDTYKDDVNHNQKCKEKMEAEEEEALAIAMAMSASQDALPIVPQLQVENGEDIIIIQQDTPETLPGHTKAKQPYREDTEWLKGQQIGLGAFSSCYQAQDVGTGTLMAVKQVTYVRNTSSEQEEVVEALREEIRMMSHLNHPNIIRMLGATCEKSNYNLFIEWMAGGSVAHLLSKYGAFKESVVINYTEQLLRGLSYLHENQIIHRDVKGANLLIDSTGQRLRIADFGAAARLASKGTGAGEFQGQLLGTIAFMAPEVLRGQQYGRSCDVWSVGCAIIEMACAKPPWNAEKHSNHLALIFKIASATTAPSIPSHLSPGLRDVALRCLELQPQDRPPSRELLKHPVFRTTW
How it was run: as §1

[14] = biological target: T12, MAP3K5 (Homo sapiens, UniProt Q99683); conditions: Lys2
T12 construct: endogenous in cells; host or cells: PANC-1 cell lysate
T12 sequence (Q99683 whole entry): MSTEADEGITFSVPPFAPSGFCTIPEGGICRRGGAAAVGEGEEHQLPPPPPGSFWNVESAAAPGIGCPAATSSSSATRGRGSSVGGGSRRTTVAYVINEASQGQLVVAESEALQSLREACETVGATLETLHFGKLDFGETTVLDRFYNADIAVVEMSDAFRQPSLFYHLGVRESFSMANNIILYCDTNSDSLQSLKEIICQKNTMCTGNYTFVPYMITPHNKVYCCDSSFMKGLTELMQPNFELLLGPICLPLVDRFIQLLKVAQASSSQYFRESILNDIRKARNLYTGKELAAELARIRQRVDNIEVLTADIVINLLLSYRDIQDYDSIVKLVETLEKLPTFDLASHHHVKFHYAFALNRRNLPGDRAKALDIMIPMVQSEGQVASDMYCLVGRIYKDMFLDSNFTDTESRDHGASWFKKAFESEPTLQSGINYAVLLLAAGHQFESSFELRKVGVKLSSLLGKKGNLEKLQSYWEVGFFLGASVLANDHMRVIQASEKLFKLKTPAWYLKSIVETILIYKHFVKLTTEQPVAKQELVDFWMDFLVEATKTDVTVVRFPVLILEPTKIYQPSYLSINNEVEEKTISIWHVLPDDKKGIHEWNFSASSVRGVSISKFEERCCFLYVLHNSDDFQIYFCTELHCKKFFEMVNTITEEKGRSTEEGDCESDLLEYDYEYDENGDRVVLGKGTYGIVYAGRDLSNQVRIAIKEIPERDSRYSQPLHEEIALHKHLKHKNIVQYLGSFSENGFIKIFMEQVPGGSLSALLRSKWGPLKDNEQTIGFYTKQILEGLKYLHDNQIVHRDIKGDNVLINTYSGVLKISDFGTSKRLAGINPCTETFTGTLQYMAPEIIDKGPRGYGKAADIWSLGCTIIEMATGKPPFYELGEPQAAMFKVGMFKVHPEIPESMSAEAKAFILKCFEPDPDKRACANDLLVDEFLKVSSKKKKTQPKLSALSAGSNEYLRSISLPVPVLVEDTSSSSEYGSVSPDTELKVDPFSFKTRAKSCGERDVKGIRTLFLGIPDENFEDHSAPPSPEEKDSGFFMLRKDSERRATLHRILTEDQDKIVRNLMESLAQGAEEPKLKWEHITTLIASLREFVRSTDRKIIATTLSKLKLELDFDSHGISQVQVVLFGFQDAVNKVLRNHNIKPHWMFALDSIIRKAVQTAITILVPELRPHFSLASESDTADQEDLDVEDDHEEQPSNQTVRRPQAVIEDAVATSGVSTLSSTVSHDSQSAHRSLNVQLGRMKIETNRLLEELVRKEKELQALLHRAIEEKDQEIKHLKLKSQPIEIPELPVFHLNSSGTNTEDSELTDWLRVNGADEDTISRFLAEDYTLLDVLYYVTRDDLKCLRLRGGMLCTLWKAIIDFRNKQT
How it was run: as §1

[15] = tested on: MARK3, MARK4; conditions: 5 µM; Lys1; EVAIKIIDK
How it was run: as §1

[16] = biological target: T13, MAST3 (Homo sapiens, UniProt O60307); conditions: Lys2
T13 construct: endogenous in cells; host or cells: PANC-1
How it was run: as §1

[17] = biological target: T14, NLK (Homo sapiens, UniProt Q9UBE8); conditions: Lys2
T14 construct: endogenous in cells; host or cells: PANC-1 cell lysate
How it was run: as §1

[18] = biological target: T15, PIP4K2A (Homo sapiens, UniProt P48426); conditions: ATP
T15 construct: endogenous in cells; host or cells: PANC-1 cell lysate
T15 sequence (P48426 whole entry): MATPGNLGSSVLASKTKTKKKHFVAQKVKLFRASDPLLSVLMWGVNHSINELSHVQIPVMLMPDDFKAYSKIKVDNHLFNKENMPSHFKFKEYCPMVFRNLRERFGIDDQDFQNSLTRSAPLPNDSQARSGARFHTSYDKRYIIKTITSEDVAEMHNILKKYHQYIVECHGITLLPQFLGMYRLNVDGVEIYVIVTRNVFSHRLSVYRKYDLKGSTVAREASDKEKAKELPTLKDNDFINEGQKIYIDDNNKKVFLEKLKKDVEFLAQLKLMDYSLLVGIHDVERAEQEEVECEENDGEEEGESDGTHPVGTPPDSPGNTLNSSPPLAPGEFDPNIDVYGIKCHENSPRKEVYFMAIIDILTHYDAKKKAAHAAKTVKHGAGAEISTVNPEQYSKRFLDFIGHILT
How it was run: as §1

[19] = biological target: T16, ROCK1 (Homo sapiens, UniProt Q13464); conditions: Other
T16 construct: endogenous in cells; host or cells: PANC-1 cell lysate
How it was run: as §1

[20] = biological target: T17, SGK3 (Homo sapiens, UniProt Q96BR1); conditions: Lys1
T17 construct: endogenous in cells; host or cells: PANC-1 cell lysate
T17 sequence (Q96BR1 whole entry): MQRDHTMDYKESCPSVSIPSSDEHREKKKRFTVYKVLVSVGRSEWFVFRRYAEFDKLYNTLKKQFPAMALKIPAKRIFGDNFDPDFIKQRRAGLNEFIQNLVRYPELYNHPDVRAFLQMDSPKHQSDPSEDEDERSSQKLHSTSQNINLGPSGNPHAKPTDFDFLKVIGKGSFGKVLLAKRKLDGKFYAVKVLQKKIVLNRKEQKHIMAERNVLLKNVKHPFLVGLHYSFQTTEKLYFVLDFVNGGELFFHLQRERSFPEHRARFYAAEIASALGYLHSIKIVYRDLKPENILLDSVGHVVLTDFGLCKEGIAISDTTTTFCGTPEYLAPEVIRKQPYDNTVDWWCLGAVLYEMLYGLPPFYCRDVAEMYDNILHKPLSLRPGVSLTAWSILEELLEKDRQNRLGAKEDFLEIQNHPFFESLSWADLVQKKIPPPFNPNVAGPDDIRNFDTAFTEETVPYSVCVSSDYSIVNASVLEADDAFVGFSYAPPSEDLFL
How it was run: as §1

[21] = biological target: T18, STK33 (Homo sapiens, UniProt Q9BYT3); conditions: Lys2
T18 construct: endogenous in cells; host or cells: PANC-1 cell lysate
How it was run: as §1

[22] = biological target: T19, p38b (Homo sapiens, UniProt Q15759); conditions: Other
T19 construct: endogenous in cells; host or cells: PANC-1 cell lysate
How it was run: as §1

Question: How did the “% Inhibition” value ([1]; Lys1, VAVKILNR) turn out when `Cn1cc(-c2cnc3ccc(NC(=O)Nc4ccc(F)c(C(F)(F)F)c4)cc3n2)cn1` [51-106, 1-(4-Fluoro-3-(trifluoromethyl)phenyl)-3-(3-(1-methyl-1H-pyrazol-4-yl)quinoxalin-6-yl)urea] was run?
Answer: 7.5%

Question: What about the “% Inhibition” value ([1]; Lys2, DLKPENVLLDAHMNAK) of the same molecule?
Answer: 8.7%

Question: What about the inhibition at 5 µM [2] of the same molecule?
Answer: 3.2%

Question: What about the inhibition at 5 µM [3] of the same molecule?
Answer: ≤ 0%

Question: What about the inhibition at 5 µM [4] of the same molecule?
Answer: ≤ 0%

Question: And the inhibition at 5 µM [5]?
Answer: ≤ 0%

Question: And the inhibition at 5 µM [6]?
Answer: 6.6%

Question: What about the inhibition at 5 µM [7] of the same molecule?
Answer: 1%

Question: And the inhibition at 5 µM [8]?
Answer: ≤ 0%

Question: And the “% Inhibition” value ([9]; 5 µM, Protein Kinase Domain, ISMADVKFSFQCPGR)?
Answer: NB (NB = No Binding (≤ 0))

Question: What about the inhibition at 5 µM ([9]; Lys1, […]) of the same molecule?
Answer: ≤ 0%

Question: And the “% Inhibition” value [10]?
Answer: NB (NB = No Binding (≤ 0))

Question: And the inhibition at 5 µM ([11]; ATP Loop, MCDFGISGYLVDSVAKTMDAGCKPYMAPER)?
Answer: ≤ 0%

Question: And the inhibition at 5 µM ([11]; Lys1, HAQSGTIMAVKR)?
Answer: ≤ 0%

Question: And the inhibition at 5 µM ([11]; Lys2, DVKPSNVLINK)?
Answer: 18.5%

Question: And the inhibition at 5 µM [12]?
Answer: ≤ 0%

Question: What about the “MAP3K1 inhibition compared to any other kinase in the panel” value ([13]; 5 μM, 328 quantified kinases) of the same molecule?
Answer: 2.5 fold

Question: What about the “% Inhibition” value ([13]; 5 µM, Lys2, DVKGANLLIDSTGQR) of the same molecule?
Answer: 78%

Question: What about the inhibition at 5 µM ([13]; 5 µM, Lys2, DVKGANLLIDSTGQR) of the same molecule?
Answer: 78.1%

Question: What about the inhibition at 5 µM [14] of the same molecule?
Answer: 11.7%

Question: And the “% Inhibition” value [15]?
Answer: NB (NB = No Binding (≤ 0))

Question: And the inhibition at 5 µM [16]?
Answer: ≤ 0%

Question: What about the inhibition at 5 µM [17] of the same molecule?
Answer: 5.9%

Question: What about the inhibition at 5 µM ([18]; AKELPTLKDNDFINEGQK) of the same molecule?
Answer: ≤ 0%

Question: And the inhibition at 5 µM ([18]; YIIKTITSEDVAEMHNILK)?
Answer: 4.5%

Question: What about the inhibition at 5 µM [19] of the same molecule?
Answer: ≤ 0%

Question: And the inhibition at 5 µM [20]?
Answer: ≤ 0%

Question: And the inhibition at 5 µM [21]?
Answer: 26.6%

Question: What about the inhibition at 5 µM [22] of the same molecule?
Answer: ≤ 0%
